The source of these data is US10717758B2, “D-amino acid compounds for liver disease” (priority 2012, dated 2020).

Where two headings read alike, the source gives them in different places.

The subject of one data set is fresh mouse hepatocyte. Kind of data set: Release of active metabolite in primary hepatocytes (mouse). It is filed as in vitro ADME. The following applies: 10 μM. Here is the method:
Plates of fresh human and mouse hepatocytes were obtained on ice. The medium was removed and replaced with hepatocyte culture medium (William's E supplemented with penicillin-streptomycin, 1% L-glutamine, 1% insulin-transferrin-selenium and 0.1 μM Dexamethasone (Invitrogen) or with Invitro GRO HI medium complemented with Torpedo antibiotics (Celsis)). Cells were left overnight in an incubator at 37° C. to acclimatize to culture and the medium.
Hepatocyte incubations were conducted at a final volume of 0.5 mL hepatocyte culture medium/well (0.8 million cells/well for human and 0.5 million cells/well for mouse; 12 well plate no overlay, collagen coat). Culture medium from overnight incubation of cells was removed and replaced with fresh medium, pre-warmed to 37° C., containing 10 μM of test compound from a stock solution in DMSO (final DMSO concentration was 0.1%). At each specific time point, incubation medium was removed and cell monolayers were carefully washed two times with ice-cold PBS. Following the last wash, all PBS was carefully removed and 1.0 mL of extraction solution (ice-cold 70% methanol/30% water) added. Cells were scraped off and suspended in the extraction solution, transferred to 2 mL polypropylene microfuge tubes and intracellular contents extracted overnight at −20° C.
After the overnight treatment the cellular extracts were prepared by centrifugation at 16,000×g for 10 min to remove cellular debris. The remaining sample was then dried using a refrigerated centrivap concentrator. Dry extracts were reconstituted in 1000 μL of HPLC-grade water and centrifuged at 16,000×g for 10 min. Aliquots (100 μL each) of the supernatant were transferred into a 96 well plate and internal standard (4 ng/mL final concentration) was added as the internal standard (IS) for LC-MS/MS analysis.
The incubation time points were 6, 24 and 48 hours for human hepatocytes and 1, 4, 8, 12 and 24 hours for mouse hepatocytes.

Data set [1] is described as follows: Plasma nucleoside and liver triphosphate PK after single oral dose (Example 4). Type of data set: in vivo, CD-1 mice. The following applies: at 1 μmol/kg, single oral dose 10 mg/kg in PEG 200; for Cmax: read-out: Ms Plasma nucleoside Cmax. Here is the method: Plasma samples were analyzed for nucleoside by LC-MS/MS. The internal standard (IS) was either 2′-MeG-D3 or tiapride. For protein precipitation and extraction, each plasma sample (50 μL) was treated with 500 μL of 0.2% formic acid in acetonitrile and 20 μL of the internal standard working solution. After vortexing and centrifugation, 500 μL of the sample extracts were transferred to a new plate, dried under N2 at ˜28° C. and reconstituted with 75 μL of 0.2% FA in water. The extracts were chromatographed on an Aquasil C18 column using a gradient system of 0.2% formic acid in water and acetonitrile. The analytes were detected and quantified by tandem mass spectrometry in positive ion mode on an MDS Sciex API5000 equipped with a Turbo Ionspray® interface. The calibration range was 0.500 (LLOQ) to 200 ng/mL in mouse plasma.
Internal standard solution was added to the homogenate followed by neutralization with 20% ammonium hydroxide solution and addition of 500 μL 1% formic acid. The tissue samples were extracted by weak anion exchange solid phase extraction (SPE). Post extraction, the eluates were evaporated under nitrogen, followed by reconstitution before injection onto the LC-MS/MS system.

Another data set relates to HCV genotype 1b replicon. Kind of data set: HCV replicon assay. Type of data set: cell-based. As for the experimental part:
Huh-7-derived cell line (Zluc) that harbors an HCV genotype 1b replicon and a luciferase reporter gene was grown in Dulbecco's Modified Eagle Medium (DMEM) supplemented with 10% fetal bovine serum, 2 mM GlutaMAX, 1% MEM nonessential amino acids, 100 IU/mL penicillin, 100 μg/mL streptomycin, and 0.5 mg/mL Geneticin® (G418). For dose response testing the cells were seeded in 96-well plates at 7.5×10^3 cells per well in a volume of 50 μL, and incubated at 37° C./5% CO2. Drug solutions were made up freshly in Huh-7 media as 2× stocks. Ten additional 5-fold dilutions were prepared from these stocks in DMEM without G418. At least three hours after Zluc cells were seeded, drug treatment was initiated by adding 50 μL of drug dilutions to the plates in duplicate. Final concentrations of drug ranged from 100 μM to […]. Cells were then incubated at 37° C./5% CO2. Alternatively, compounds were tested at two concentrations (1 μM and 10 μM). […] For this, media was removed from the plates via gentle tapping. Fifty microliters of ONE-glo luciferase assay reagent was added to each well. The plates were shaken gently for 3 min at room temperature and luminescence was measured on a Victor^3 V 1420 multilabel counter (Perkin Elmer) with a 1 second read time using a 700 nm cut-off filter. The EC50 values were calculated from dose response curves from the resulting best-fit equations determined by Microsoft Excel and XLfit 4.1 software. When screening at two fixed concentrations, the results were expressed as % inhibition at 1 μM and 10 μM.

The subject of the next data set is Huh-7 cells. Kind of data set: Release of active metabolite in Huh-7 cells. Type of data set: in vitro ADME, human. Here is the method:
Huh-7 cells were plated in 1 mL culture medium (DMEM, containing glucose, L-glutamine and sodium pyruvate, 10% FBS, 100 IU/mL penicillin, 100 μg/mL streptomycin, 2 mM GlutaMAX, 1% MEM non-essential amino acids) at the concentration 0.8, 0.4 and 0.2 million cells per well on 6 well plates for 24, 48 and 72 hr treatment, respectively. Plated cells were incubated overnight at 37° C. in an incubator.
The following morning test compound was diluted to 20 μM from a stock solution in DMSO in fresh culture medium pre-warmed to 37° C. and 1 mL of the solution/well was added to cells. A final medium volume per well was 2.0 mL, test compound concentration in well was 10 μM and final DMSO concentration was 0.1%.
After 24, 48 or 72 hr, the medium was carefully removed and cell monolayers were washed twice with 2 mL ice-cold PBS per well. Following the last wash, all PBS was carefully removed and 1.0 mL of extraction solution (ice-cold 70% methanol) added. The plate was tightly covered with Parafilm, plastic plate cover and Parafilm again and an intracellular content was extracted at −20° C. for 24 hr.
After 24 hr the extracts were transferred into polypropylene microfuge tubes and dry on a refrigerated centrivap concentrator. Dry residues were reconstituted in 250 μL of HPLC-grade water and centrifuged at 16,000×g for 10 min. Aliquots (100 μL each) of the supernatants were transferred into a 96 well plate and internal standard (4 ng/mL final concentration) was added as the internal standard (IS) for LC-MS/MS analysis.

Another data set deals with T1, cathepsin A (CatA) (Homo sapiens, UniProt P10619).
T1 sequence (P10619 29-326 limits assumed): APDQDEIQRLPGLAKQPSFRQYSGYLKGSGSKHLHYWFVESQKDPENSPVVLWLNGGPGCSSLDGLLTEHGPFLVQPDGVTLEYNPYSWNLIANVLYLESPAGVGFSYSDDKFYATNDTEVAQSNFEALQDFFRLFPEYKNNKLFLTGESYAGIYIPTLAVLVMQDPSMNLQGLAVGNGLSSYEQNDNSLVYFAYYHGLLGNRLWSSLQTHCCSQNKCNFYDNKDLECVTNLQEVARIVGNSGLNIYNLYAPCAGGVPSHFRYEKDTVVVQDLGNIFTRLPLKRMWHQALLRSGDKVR
T1 sequence (P10619 327-480 limits assumed): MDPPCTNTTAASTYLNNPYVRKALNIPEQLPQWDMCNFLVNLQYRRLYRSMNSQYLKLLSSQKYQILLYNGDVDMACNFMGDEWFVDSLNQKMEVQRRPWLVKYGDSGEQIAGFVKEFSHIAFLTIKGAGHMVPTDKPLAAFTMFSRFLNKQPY
Kind of data set: Hydrolysis of prodrugs by Cathepsin A. Type of data set: in vitro ADME. The following applies: time not given; 100 μM compound, 37° C., pH 6.0. Here is the method: CatA, cathepsin L (CatL) and CES1 were purchased from R & D Systems (Minneapolis, Minn.). Prior to the enzymatic hydrolysis reactions, CatA was activated according to the manufacturer's instruction. Briefly, CatA (0.05 μg/μL) was incubated with CatL (0.005 μg/μL) for 30 min at 37° C. in 25 mM MES pH 6.0 containing 5 mM DTT. The reaction was stopped by addition of the CatL specific inhibitor E64 (10 μM).
The CatA assay was performed at 37° C. The reaction mixture contained 25 mM MES buffer pH 6.0, 100 mM NaCl, 4 mM DTT and 100 μM of the compound. The reaction was started by addition of the activated CatA enzyme to a final concentration of 0.005 μg/μL. […] Reactions were stopped by mixing the sample with an equal volume of ice-cold methanol, and were loaded on a HPLC for analysis.

Data set [2] concerns the target T2, carboxylesterase 1 (CES1) (Homo sapiens, UniProt P23141).
T2 construct: purchased R & D Systems (Minneapolis, Minn.)
T2 sequence (P23141 18-567): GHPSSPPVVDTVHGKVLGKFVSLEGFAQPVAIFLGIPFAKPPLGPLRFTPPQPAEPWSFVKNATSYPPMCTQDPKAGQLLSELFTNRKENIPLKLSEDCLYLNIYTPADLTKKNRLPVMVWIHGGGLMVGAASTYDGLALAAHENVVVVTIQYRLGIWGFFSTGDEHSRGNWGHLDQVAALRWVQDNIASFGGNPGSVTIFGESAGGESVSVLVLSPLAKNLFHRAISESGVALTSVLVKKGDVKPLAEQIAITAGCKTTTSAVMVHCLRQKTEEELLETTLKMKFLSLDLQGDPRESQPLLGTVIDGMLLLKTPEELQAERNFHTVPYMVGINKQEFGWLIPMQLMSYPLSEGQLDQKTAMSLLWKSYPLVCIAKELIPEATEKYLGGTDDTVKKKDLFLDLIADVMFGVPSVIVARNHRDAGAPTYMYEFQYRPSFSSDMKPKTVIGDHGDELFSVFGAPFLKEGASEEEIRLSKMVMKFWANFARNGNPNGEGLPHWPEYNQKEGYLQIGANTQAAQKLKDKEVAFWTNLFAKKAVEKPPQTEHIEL
As to the kind of experiment: Hydrolysis of prodrugs by Carboxylesterase 1. Type of data set: in vitro ADME. The following applies: for CES1 hydrolysis: 100 μM compound, 37° C., pH 7.5.
Protocol: CES1 assay was performed at 37° C. in the reaction mixture containing 50 mM Tris/HCl buffer pH 7.5 and 100 μM of the compound. Reaction was started by addition of the CES1 to the final concentration 0.01 μg/mL. 100 μL aliquots were taken after 0.5 min, 3 hrs and 21 hrs of the incubation and the reaction was stopped by mixing with 100 μl of the ice-cold methanol prior to HPLC analysis.
Samples were analyzed by HPLC using 5 μC-18, 4.6×250 mm Phenomenex® Columbus column (Phenomenex USA, Calif.). The mobile phase consisted of buffer A (25 mM potassium phosphate with 5 mM tetrabutylammonium dihydrogen phosphate pH 6.3) and buffer B (100% methanol).

A short description of data set [3]: Liver TP formation and liver targeting in vivo (Example 6, Table 7). The arrangement: species or system mice and monkey. From the text:
The in vitro antiviral inactivity of Z4 and Z2 is thought to reflect an inability of Huh-7 replicon cells to metabolize the prodrug moiety.

Another data set concerns Zluc cells. Kind of data set: Cytotoxicity evaluation in Zluc cells (CellTiter-Blue). The following applies: read-out: HCV Replicon CC50. Type of data set: cell-based, human. As for the experimental part:
For cytotoxicity evaluation, Zluc cells were treated with compound as described herein, and cell viability was monitored using the CellTiter-Blue Cell Viability Assay (Promega) by adding 20 μL of the assay solution to each well. The plates were then incubated at 37° C./5% CO2 for at least 3 hours.
On the technique in general: The colour change of resazurin is a common sign of viable cells or microbes.

Regarding `CC(C)OC(=O)[C@@H](C)NP(=O)(OC[C@H]1O[C@@H](n2ccc(=O)[nH]c2=O)[C@](C)(Cl)[C@@H]1O)Oc1ccccc1` (single isomer, unassigned; diastereomer 2) [40i Diastereomer 2], in the data set with fresh mouse hepatocyte, the “MsH AUC” value amounted to 1073 pmol.hr/mill cells and the “MsH Cmax” value was 89 pmol/mill cells. Further, in data set [1], the “Ms Plasma nucleoside AUC” value amounted to 0.0036 M·s and the Cmax (in general, the highest concentration seen after dosing) stood at 64 nM.
Regarding `CC(C)OC(=O)[C@@H](C)N[P@@](=O)(OC[C@H]1O[C@@H](n2ccc(=O)[nH]c2=O)[C@](C)(F)[C@@H]1O)Oc1ccccc1` [Compound (804a) Ia (RP isomer), D-Alanine, N—((RP,2′R)-2′-deoxy-2′-fluoro-2′-methyl-P-phenyl-5′-uridylyl)-, 1-methylethyl ester], the half-maximal effective concentration (EC50) (commonly the concentration at which the effect is half-maximal) is above 50 µM in the data set with HCV genotype 1b replicon (Hepatitis C virus, Huh-7, read-out: EC50 (replicon reproduction), genotype 1b HCV replicon-bearing human hepatoma cell line (Huh-7)) and above 50 µM in the data set on HCV genotype 1b replicon (Hepatitis C virus, Table 7, read-out: EC50). Besides, the “Huh-7 AUC0-72” value in the data set with Huh-7 cells (Table 7) came to 720.4 pmol*hr/10^6cells. On cathepsin A (CatA), the CatA hydrolysis is listed as 0%. The “Hydrolysis by CES1” value in data set [2] is listed as “processed”. The results for the CES1 hydrolysis in data set [2] (3 h) and in data set [2] (21 h) were 10% @ and 3 h; 26%, respectively. In addition, in data set [3], the “Liver:plasma ratio of drug metabolites” value is listed as “high liver:plasma ratio of drug metabolites”.
With `CC(C)OC(=O)[C@@H](C)NP(=O)(OC[C@H]1O[C@@H](n2ccc(=O)[nH]c2=O)[C@](C)(Cl)[C@@H]1O)Oc1ccccc1` (single isomer, unassigned; diastereomer 2) [Compound 40i Diastereomer 2], the EC50 in the data set on HCV genotype 1b replicon (Table 7, read-out: EC50) came out at 7 µM. Moreover, at cathepsin A (CatA), the CatA hydrolysis was 0%. Also, the CES1 hydrolysis in data set [2] (21 h) is on record as 4.5% @. In addition, the “Liver TP” value in data set [3] turned out to be 4400 pmol·h/g.
In the case of `CC(C)OC(=O)[C@H](C)NP(=O)(OC[C@H]1O[C@@H](n2ccc(=O)[nH]c2=O)[C@](C)(Cl)[C@@H]1O)Oc1ccccc1` (single isomer, unassigned; diastereomer 1) [40ii Diastereomer 1], in the data set with HCV genotype 1b replicon (Zluc (Huh-7-derived) cells, luciferase reporter, 72 hours, read-out: HCV Replicon EC50), the concentration giving a half-maximal response (EC50) is below 0.25 µM. Moreover, the half-maximal cytotoxic concentration (CC50) (commonly the concentration giving 50% cytotoxicity) in the data set on Zluc cells is above 50 µM. Also, in the data set with Huh-7 cells (10 μM test compound), the “Huh-7 TP AUC” value worked out at 4380 pmol.hr/mill cells and the “Huh-7 TP Cmax” value was determined as 123 pmol/mill cells. In the data set with Huh-7 cells (10 μM test compound, 24 hr), the “Huh-7 TP (24 hr)” value was found to be 25. For the same compound, the “Huh-7 TP (48 hr)” value in the data set with Huh-7 cells (10 μM test compound, 48 hr) is on record as 96. Besides, the “Huh-7 TP (72 hr)” value in the data set on Huh-7 cells (10 μM test compound, 72 hr) turned out to be 123. Further, in data set [1], the “Ms Plasma nucleoside AUC” value is 0.00349 M·s and the Cmax stood at 86 nM.
